The values below come from US9423396B2, “Bodipy structure fluorescence probes for diverse biological applications” (National University of Singapore, priority 2011, dated 2016).

The nature of this data set: Spectroscopic measurements (absorption, emission, quantum yield, extinction coefficient). The class given is physicochemical.
Where [1] appears, read: BDNCA library, difference emission minus absorption.
[2] abbreviates: BDNCA library, extinction coefficient; in M-1 cm-1 (unit assumed).
Where [3] appears, read: BDNCA library, fluorescence emission.
Where [4] appears, read: absorption maximum, BDNCA library.
[5] abbreviates: difference of emission and absorption maxima.
The mark [6] stands for this setting: extinction coefficient, BDNCA library; in M-1 cm-1 (unit assumed).
The mark [7] stands for this setting: fluorescence emission maximum, BDNCA library.

For `COc1c(Br)cc(Br)cc1/C=C/C1=[N+]2C(=C(c3ccc(NC(=O)CCl)cc3)c3cccn3[B-]2(F)F)C(C)=C1` [BDNCA-241], the “Qunt. Yield” value (BDNCA library) is 0.09. Where the note is “BDNCA library, absorption”, this compound returned an Abs of 558 nm. Further, under setting [1], the Flu-Abs stood at 20. Moreover, under setting [2], the ε is recorded as 48,879. Besides, the Flu under setting [3] is given as 578.

As for `COc1ccc(/C=C/C2=[N+]3C(=C(c4ccc(NC(=O)CCl)cc4)c4cccn4[B-]3(F)F)C(C)=C2)cc1[N+](=O)[O-]` [BDNCA-350], under setting [4], the Abs was determined as 560 nm. This compound also displayed a Flu-Abs under setting [5] of 21. Further, the ε under setting [6] is on record as 34,874. In addition, under setting [7], the Flu was 581. Also, under “quantum yield, BDNCA library”, the “Qunt. Yield” value came out at 0.07.

For `CCCCOc1ccc(/C=C/C2=[N+]3C(=C(c4ccc(NC(=O)CCl)cc4)c4cccn4[B-]3(F)F)C(C)=C2)cc1` [BDNCA-46], the “Qunt. Yield” value (BDNCA library) was 0.10. The Abs (BDNCA library, absorption) turned out to be 566 nm. Besides, the Flu-Abs under setting [1] is 32. Besides, the ε under setting [2] was 42,563. The Flu under setting [3] was found to be 598.

For `CCCCCCOc1ccc(/C=C/C2=[N+]3C(=C(c4ccc(NC(=O)CCl)cc4)c4cccn4[B-]3(F)F)C(C)=C2)cc1` [BDNCA-45], under “BDNCA library”, the “Qunt. Yield” value came to 0.13. This compound came in with an Abs (BDNCA library, absorption) of 566 nm. Moreover, under setting [1], the Flu-Abs turned out to be 32. For the same compound, the ε under setting [2] was 82,929. In addition, under setting [3], the Flu is 598.

`CCOc1ccc(/C=C/C2=[N+]3C(=C(c4ccc(NC(=O)CCl)cc4)c4cccn4[B-]3(F)F)C(C)=C2)cc1OCC` [BDNCA-53]: where the note is “BDNCA library”, the “Qunt. Yield” value stood at 0.06. Where the note is “BDNCA library, absorption”, this compound had an Abs of 570 nm. Further, under setting [1], the Flu-Abs came out at 51. Further, under setting [2], the ε was 31,579. Besides, under setting [3], the Flu turned out to be 621.

With `CC1=CC(/C=C/c2cccc(O)c2)=[N+]2C1=C(c1ccc(NC(=O)CCl)cc1)c1cccn1[B-]2(F)F` [BDNCA-105], the “Qunt. Yield” value (BDNCA library) turned out to be 0.06. The compound also had an Abs (BDNCA library, absorption) of 556 nm. Besides, under setting [1], the Flu-Abs stood at 19. The ε under setting [2] is recorded as 38,719. The Flu under setting [3] was determined as 575.

With `COc1ccc(/C=C/C2=[N+]3C(=C(c4ccc(NC(=O)CCl)cc4)c4cccn4[B-]3(F)F)C(C)=C2)cc1OCc1ccccc1` [BDNCA-7], the “Qunt. Yield” value (BDNCA library) was 0.19. The compound further gave an Abs (BDNCA library, absorption) of 570 nm. In addition, the Flu-Abs under setting [1] amounted to 46. Further, the ε under setting [2] is 87,872. For the same compound, the Flu under setting [3] came to 616.

In the case of `COc1ccc(-c2ccc(/C=C/C3=[N+]4C(=C(c5ccc(NC(=O)CCl)cc5)c5cccn5[B-]4(F)F)C(C)=C3)o2)cc1Cl` [BDNCA-195], the “Qunt. Yield” value (BDNCA library) is given as 0.01. Besides, the Abs (BDNCA library, absorption) stood at 605 nm. In addition, the ε under setting [2] is listed as 21,968. Further, under setting [3], the Flu is 681.

`COc1ccc(/C=C/c2cc(C)c3n2[B-](F)(F)[N+]2=CC=CC2=C3c2ccc(NC(=O)CCl)cc2)c(Cl)c1OC` [BDNCA-372] gave an Abs under setting [4] of 565 nm. Besides, the Flu-Abs under setting [5] stood at 29. In addition, the ε under setting [6] is 69,474. The Flu under setting [7] is recorded as 594. Besides, the “Qunt. Yield” value (quantum yield, BDNCA library) was 0.13.

In the case of `COc1cc(Cl)c(/C=C/C2=[N+]3C(=C(c4ccc(NC(=O)CCl)cc4)c4cccn4[B-]3(F)F)C(C)=C2)c(Cl)c1O` [BDNCA-220], under “BDNCA library”, the “Qunt. Yield” value was determined as 0.01. This compound also came in with an Abs (BDNCA library, absorption) of 559 nm. The same compound returned a Flu-Abs under setting [1] of 24. In addition, the ε under setting [2] was 40,915. In addition, under setting [3], the Flu turned out to be 583.

For `Cc1cccc(/C=C/c2cc(C)c3n2[B-](F)(F)[N+]2=CC=CC2=C3c2ccc(NC(=O)CCl)cc2)c1` [BDNCA-9], for the setting “BDNCA library”, the “Qunt. Yield” value is 0.10. The compound also came in with an Abs (BDNCA library, absorption) of 556 nm. Further, the Flu-Abs under setting [1] is reported as 19. Further, the ε under setting [2] was 47,780. The compound further displayed a Flu under setting [3] of 575.

Take `COc1ccc([N+](=O)[O-])cc1/C=C/C1=[N+]2C(=C(c3ccc(NC(=O)CCl)cc3)c3cccn3[B-]2(F)F)C(C)=C1` [BDNCA-250]: the “Qunt. Yield” value (BDNCA library) is listed as 0.12. This compound displayed an Abs (BDNCA library, absorption) of 559 nm. The compound further had a Flu-Abs under setting [1] of 22. In addition, the ε under setting [2] is recorded as 53,547. Further, the Flu under setting [3] is recorded as 581.
